For test [1], the system named is LAMP2 in primary hippocampal neurons. Put plainly: Scratch injury: LAMP2 Western blot. Format: cell-based, rat. The settings on record: scratch-AMX vs scratch-vehicle, 24 hours after scratch. As to the method: Primary hippocampal neurons were obtained from embryonic day 18 (E18) Sprague-Dawley rat embryos. Pregnant rats were anesthetized using 2-3% isoflurane in a gas mixture of 70% nitrous oxide and 30% oxygen. Following euthanasia, the hippocampi were carefully dissected, minced, and enzymatically dissociated using TrypLE Express (Gibco, NY, USA) for 10 minutes at 37°C. The tissue was further mechanically dissociated using fire-polished glass pipettes, and the resulting cell suspension was filtered through a 70 μm cell strainer to remove debris. Neurons were seeded at a density of 3 × 10^5 cells per well in 24-well plates pre-coated with poly-L-lysine (Sigma-Aldrich, Saint Louis, MO, USA). Cells were maintained in neurobasal medium supplemented with B-27 (Thermo Fisher Scientific, Waltham, MA, USA), GlutaMAX (Gibco), and penicillin-streptomycin. […]
A scratch injury model was used to mimic TBI in vitro. […] After the treatment period, neuronal damage and recovery were assessed using appropriate evaluation methods.
Twenty-four hours after the scratch injury, cells were lysed using RIPA buffer (IBS-BR002, iNtRON, Republic of Korea) supplemented with protease and phosphatase inhibitors (Sigma, USA). […] Protein detection was performed using a chemiluminescence bioimaging device (Amersham Imager 680, Cytiva, MA, USA), and the results were analyzed to determine protein expression levels.
Background: A western blot detects proteins with antibodies after separation by electrophoresis.

For test [2], the system named is cultured cortical astrocytes. Nature of the test: p-PKA substrate Western blot in astrocytes. Format: cell-based. The settings on record: 10 µM AMX for 1 and 4 hours.
The test system of test [3] is primary hippocampal neurons. Nature of the test: Scratch injury: cAMP ELISA. It is filed as cell-based, rat. As to conditions: 10 μM AMX immediately after scratch, 6 hours post-injury. The procedure:
Primary hippocampal neurons were obtained from embryonic day 18 (E18) Sprague-Dawley rat embryos. Pregnant rats were anesthetized using 2-3% isoflurane in a gas mixture of 70% nitrous oxide and 30% oxygen. Following euthanasia, the hippocampi were carefully dissected, minced, and enzymatically dissociated using TrypLE Express (Gibco, NY, USA) for 10 minutes at 37°C. The tissue was further mechanically dissociated using fire-polished glass pipettes, and the resulting cell suspension was filtered through a 70 μm cell strainer to remove debris. Neurons were seeded at a density of 3 × 10^5 cells per well in 24-well plates pre-coated with poly-L-lysine (Sigma-Aldrich, Saint Louis, MO, USA). Cells were maintained in neurobasal medium supplemented with B-27 (Thermo Fisher Scientific, Waltham, MA, USA), GlutaMAX (Gibco), and penicillin-streptomycin. The cultures were incubated at 37.5°C in a humidified atmosphere containing 5% CO₂. After seven days of growth, neurons were fixed with 4% paraformaldehyde (PFA) for 15 minutes at room temperature and subsequently stored at 4°C until their further use for immunostaining. A scratch injury model was used to mimic TBI in vitro. […] After the treatment period, neuronal damage and recovery were assessed using appropriate evaluation methods. […]
For orientation: In an ELISA, binding on a coated surface is turned into a signal by an enzyme label.

The text below walks through data of article PMC12320245 (International Journal of Biological Sciences, 2025).

As for `CC(C)c1ccc2oc3nc(N)c(C(=O)O)cc3c(=O)c2c1` [AMX, amlexanox], in test [1], the LAMP2 expression entry was “significantly preserved”. Besides, the p-PKA levels entry in test [2] was “increased p-PKA levels”. For the same compound, the “cAMP levels after scratch injury (ELISA)” value in test [3] was “restored cAMP and p-PKA levels”.
